Results taken from patent US9872904B2, “Photoimmunoconjugates for use in photodynamic therapy” (Fraunhofer-Gesellschaft zur Foerderung der angewandten …, priority 2012, dated 2018).

What was measured:
caspase-3 and caspase-7 = assay: Apo-ONE Homogeneous Caspase-3/7 Assay; assay type: cell-based, human; conditions: 200 nM; 24 h after light activation; A431, MDA-MB-231, MDA-MB468, SiHa and CHO-K1 cells analyzed
Procedure: (§1) Control cultures were incubated with 500 μg/ml zeocin instead of the photosensitizer. The cells were then irradiated with 24 J/cm^2 broadband visible/near infrared light using Hydrosun type 505, 7-mm water cuvette and orange filter OG590, spectrum in the range 580-1400 nm (Hydrosun Medizintechnik GmbH, Müllheim, Germany) and incubated for a further 24 h at 37° C. in a 5% CO2 atmosphere.
Caspase-3/7 activity in cell lysates was determined using the Apo-ONE Caspase-3/7 assay (Promega, Mannheim, Germany) 24 h after light activation. Briefly, 100 μl of Apo-ONE reagent was added to the cells, and they were incubated for 6 h before fluorescence readings were taken with an ELISA plate reader Elisareader ELx808 (Bio-TEK, Bad Friedrichsahll, Germany) using an excitation wavelength of 485 nm and an emission wavelength of 535 nm. The concentration of ROS was determined by measuring the 485/535 nm fluorescence ratio of H2DCFDA (Invitrogen, Darmstadt, Germany). […] The cells were washed twice with warm PBS containing 2.5% FCS, cultured for 2 h in […] medium and illuminated as described above. Fluorescence readings were taken directly after illumination. A blank probe (cells and medium) reading was used as the background and subtracted from all the sample readings.

[1] = tested on: EGFR^− cell lines L540 and CHO-K1; assay: Confocal microscopy binding and internalization, EGFR^− cells; assay type: cell-based, human; conditions: 4° C. and 37° C.
Procedure: (§2) Images were visualized with a TCS SP5 confocal microscope (LEICA Microsystem, Wetzlar, Germany). Cells were prepared as described above for flow cytometry. Binding efficiency was determined by incubating cells with the labeled fusion proteins for 30 min on ice. Internalization was monitored by incubating cells with the labeled fusion proteins for 30 min at 37° C.

A431 cells = assay: ROS generation (carboxy-H2DCFDA fluorescence) in photosensitized A431 cells; assay type: cell-based, human; conditions: 200 nM
Procedure: Caspase-3/7 activity in cell lysates was determined using the Apo-ONE Caspase-3/7 assay (Promega, Mannheim, Germany) 24 h after light activation. […] The cells were washed twice with warm PBS containing 2.5% FCS, cultured for 2 h in […] medium and illuminated as described above. Fluorescence readings were taken directly after illumination. A blank probe (cells and medium) reading was used as the background and subtracted from all the sample readings.

CHO-K1 = assay: XTT cell proliferation assay (phototoxicity), CHO-K1 negative control; assay type: cell-based, Chinese hamster; conditions: CHO-K1 exposed to 800 nM; with light activation
Procedure: All cell lines were […], including the EGFR^+ A431, MDA-MB-231, MDA-MB468 and SiHa cells, and the EGFR^− L540, CHO-K1 and HEK-293T cells. A431, L540, CHO-K1 and HEK-293T cells were cultured in RPMI-1640 medium supplemented with 2 mM L-glutamine, 10% (v/v) fetal bovine serum (FBS) and 100 U/ml penicillin-streptomycin. MDA-MB-231, MDA-MB468 and SiHa cells were cultured in DMEM with 10% (v/v) fetal bovine serum (FBS) and 100 U/ml penicillin-streptomycin. All cells were incubated at 37° C. in a 5% CO2 atmosphere. All media and additives were obtained from Invitrogen, Darmstadt, Germany.
as §1
Cell viability was determined using the XTT cell proliferation kit II (Roche, Mannheim Germany), 24 h after light activation. […] Reduction of XTT to formazan by viable tumor cells was monitored colorimetrically at an absorbance wavelength of 450 nm and a reference wavelength of 630 nm using an ELISA plate reader Elisareader ELx808 (Bio-TEK, Bad Friedrichsahll, Germany).

[2] = tested on: A431, MDA-MB-231, MDA-MB468 and SiHa cells; assay: Confocal microscopy binding and internalization, EGFR^+ cells; assay type: cell-based, human
Procedure: as §2

## scFv-425-SNAP-Ce6
caspase-3 and caspase-7
  levels of caspase-3 and caspase-7: increased
[1]
  Ce6 fluorescence signal (confocal microscopy): no signal was detected
A431 cells; after light activation
  ROS synthesis (DCF 485/535-nm fluorescence): burst of ROS synthesis
A431 cells; non-irradiated cells
  ROS levels (DCF 485/535-nm fluorescence): only a small increase in ROS levels
CHO-K1
  cell viability: remained unaffected
[2]; 0.5 μg, 30 min at 4° C.
  membrane staining (confocal microscopy): strong, specific and homogeneous membrane staining
[2]; 30-min incubation at 37° C.
  internalization (uptake into cells, confocal microscopy): specifically and efficiently taken up
